Assay results reported in US20030105595A1, “Chi square tests for gene expression” (priority 2001, published 2003).

Experiments:
Test in all cases: multi-sample expression analysis, band intensity
Format in all cases: in vivo
Details in all cases: Pooled
band b1i0_57.4 = test system: band b1i0_57.4
Description: (§1) To practice the invention, one skilled in the art obtains a source of biological samples, as well as expression information about the biological samples, i.e., expression information relative to one or more genes or polypeptides encoded therein. Data is collected for a particular phenotype appearing within a given population under study, whereby expression of that phenotype is to be determined within the biological sample under study. The phenotype is correlated to a specific genotype, which is then represented as a band with a given intentity, thus indicative of gene expression levels, and is then compared to control samples. Alternatively, the response of a gene to dosage with one or more drugs is determined by band intensity. The standard deviation from the mean (StdDev) is calculated for the control samples, and is fit to functional form in the following equation: […]
(§2) A multi-sample expression analysis was run using the program described in Example 1. For each drug run, only runs for genes producing bands with a p-value<10^−5 in at least 2 of the following 3 comparisons were selected: low dose versus vehicle, high dose versus vehicle and low dose versus high dose. […] Since clusters found using all 13K bands included some of the best 2K bands, it was concluded that no essential signal was lost (see FIGS. 3 and 4). […] A comparison using the same analytic tests on only the best 2K bands. It can be seen that the Chi Square metric provides a better distinction between low and high doses than the correlation metric, which is not able to distinguish between the low dose and the high dose (see FIG. 6). The low-dose/high dose statistical variation is more pronounced when only the best 2K bands are selected.

band b1i0_63.7 = test system: band b1i0_63.7
Description: as §1, §2

band b1i0_51.7 = test system: band b1i0_51.7
Description: as §1, §2

band b1i0_53.0 = test system: band b1i0_53.0
Description: as §1, §2

band b1i0_54.5 = test system: band b1i0_54.5
Description: as §1, §2

band b1i0_69.4 = test system: band b1i0_69.4
Description: as §1, §2

band b1i0_62.5 = test system: band b1i0_62.5
Description: as §1, §2

band b1i0_60.7 = test system: band b1i0_60.7
Description: as §1, §2

S=C=Nc1cccc2ccccc12 [ANIT]
band intensity b1i0_57.4 (band b1i0_57.4; High dose, 1d): 1272
band intensity b1i0_57.4 (band b1i0_57.4; High dose, 3d): 712.4
band intensity b1i0_57.4 (band b1i0_57.4; High dose, 7d): 685.8
band intensity b1i0_57.4 (band b1i0_57.4; Low dose, 1d): 1209.0048
band intensity b1i0_57.4 (band b1i0_57.4; Low dose, 3d): 1266
band intensity b1i0_57.4 (band b1i0_57.4; Low dose, 7d): 1303
band intensity b1i0_57.4 (band b1i0_57.4; Low dose, 14d): 810.7
band intensity b1i0_63.7 (band b1i0_63.7; High dose, 1d): 50.09
band intensity b1i0_63.7 (band b1i0_63.7; High dose, 3d): 0.01399
band intensity b1i0_63.7 (band b1i0_63.7; High dose, 7d): 147.9
band intensity b1i0_63.7 (band b1i0_63.7; Low dose, 1d): 170.6
band intensity b1i0_63.7 (band b1i0_63.7; Low dose, 3d): 7.245
band intensity b1i0_63.7 (band b1i0_63.7; Low dose, 7d): 299.4
band intensity b1i0_63.7 (band b1i0_63.7; Low dose, 14d): 9.845
band intensity b1i0_51.7 (band b1i0_51.7; High dose, 1d): 23.54
band intensity b1i0_51.7 (band b1i0_51.7; High dose, 3d): 30.1
band intensity b1i0_51.7 (band b1i0_51.7; High dose, 7d): 21.57
band intensity b1i0_51.7 (band b1i0_51.7; Low dose, 1d): 30.7
band intensity b1i0_51.7 (band b1i0_51.7; Low dose, 3d): 22.37
band intensity b1i0_51.7 (band b1i0_51.7; Low dose, 7d): 20.67
band intensity b1i0_51.7 (band b1i0_51.7; Low dose, 14d): 82
band intensity b1i0_53.0 (band b1i0_53.0; High dose, 1d): 99.5
band intensity b1i0_53.0 (band b1i0_53.0; High dose, 3d): 84.16
band intensity b1i0_53.0 (band b1i0_53.0; High dose, 7d): 106.3
band intensity b1i0_53.0 (band b1i0_53.0; Low dose, 1d): 121.8
band intensity b1i0_53.0 (band b1i0_53.0; Low dose, 3d): 45.02
band intensity b1i0_53.0 (band b1i0_53.0; Low dose, 7d): 108.1
band intensity b1i0_53.0 (band b1i0_53.0; Low dose, 14d): 54.67
band intensity b1i0_54.5 (band b1i0_54.5; High dose, 1d): 102.2
band intensity b1i0_54.5 (band b1i0_54.5; High dose, 3d): 114.2
band intensity b1i0_54.5 (band b1i0_54.5; High dose, 7d): 95.67
band intensity b1i0_54.5 (band b1i0_54.5; Low dose, 1d): 105.3
band intensity b1i0_54.5 (band b1i0_54.5; Low dose, 3d): 111.3
band intensity b1i0_54.5 (band b1i0_54.5; Low dose, 7d): 88.17
band intensity b1i0_54.5 (band b1i0_54.5; Low dose, 14d): 33.49
band intensity b1i0_69.4 (band b1i0_69.4; High dose, 1d): 208.6
band intensity b1i0_69.4 (band b1i0_69.4; High dose, 3d): 284.1
band intensity b1i0_69.4 (band b1i0_69.4; High dose, 7d): 271.2
band intensity b1i0_69.4 (band b1i0_69.4; Low dose, 1d): 276.3
band intensity b1i0_69.4 (band b1i0_69.4; Low dose, 3d): 370.5
band intensity b1i0_69.4 (band b1i0_69.4; Low dose, 7d): 305.4
band intensity b1i0_69.4 (band b1i0_69.4; Low dose, 14d): 748.9
band intensity b1i0_62.5 (band b1i0_62.5; High dose, 1d): 49.33
band intensity b1i0_62.5 (band b1i0_62.5; High dose, 3d): 93.56
band intensity b1i0_62.5 (band b1i0_62.5; High dose, 7d): 81.4
band intensity b1i0_62.5 (band b1i0_62.5; Low dose, 1d): 68.44
band intensity b1i0_62.5 (band b1i0_62.5; Low dose, 3d): 104.9
band intensity b1i0_62.5 (band b1i0_62.5; Low dose, 7d): 91.61
band intensity b1i0_62.5 (band b1i0_62.5; Low dose, 14d): 249.3
band intensity b1i0_60.7 (band b1i0_60.7; High dose, 1d): 74.32
band intensity b1i0_60.7 (band b1i0_60.7; High dose, 3d): 74.89
band intensity b1i0_60.7 (band b1i0_60.7; High dose, 7d): 72.63
band intensity b1i0_60.7 (band b1i0_60.7; Low dose, 1d): 87.08
band intensity b1i0_60.7 (band b1i0_60.7; Low dose, 3d): 67.38
band intensity b1i0_60.7 (band b1i0_60.7; Low dose, 7d): 75.42
band intensity b1i0_60.7 (band b1i0_60.7; Low dose, 14d): 141.7

Nc1ccc(Cc2ccc(N)cc2)cc1 [Methylenedianiline]
band intensity b1i0_57.4 (band b1i0_57.4; High dose, 1d): 1230
band intensity b1i0_57.4 (band b1i0_57.4; High dose, 3d): 1407
band intensity b1i0_57.4 (band b1i0_57.4; High dose, 7d): 1184
band intensity b1i0_57.4 (band b1i0_57.4; High dose, 14d): 455.9
band intensity b1i0_57.4 (band b1i0_57.4; Low dose, 1d): 1376
band intensity b1i0_57.4 (band b1i0_57.4; Low dose, 3d): 1433
band intensity b1i0_57.4 (band b1i0_57.4; Low dose, 7d): 1280
band intensity b1i0_57.4 (band b1i0_57.4; Low dose, 14d): 789.2
band intensity b1i0_63.7 (band b1i0_63.7; High dose, 1d): 85.1
band intensity b1i0_63.7 (band b1i0_63.7; High dose, 3d): 153.8
band intensity b1i0_63.7 (band b1i0_63.7; High dose, 7d): 144.3
band intensity b1i0_63.7 (band b1i0_63.7; High dose, 14d): 2.073
band intensity b1i0_63.7 (band b1i0_63.7; Low dose, 1d): 24.89
band intensity b1i0_63.7 (band b1i0_63.7; Low dose, 3d): 84.1
band intensity b1i0_63.7 (band b1i0_63.7; Low dose, 7d): 287.2
band intensity b1i0_63.7 (band b1i0_63.7; Low dose, 14d): 0.3527
band intensity b1i0_51.7 (band b1i0_51.7; High dose, 1d): 23.55
band intensity b1i0_51.7 (band b1i0_51.7; High dose, 3d): 27.88
band intensity b1i0_51.7 (band b1i0_51.7; High dose, 7d): 23.35
band intensity b1i0_51.7 (band b1i0_51.7; High dose, 14d): 33.18
band intensity b1i0_51.7 (band b1i0_51.7; Low dose, 1d): 22.28
band intensity b1i0_51.7 (band b1i0_51.7; Low dose, 3d): 27.01
band intensity b1i0_51.7 (band b1i0_51.7; Low dose, 7d): 21.37
band intensity b1i0_51.7 (band b1i0_51.7; Low dose, 14d): 71.33
band intensity b1i0_53.0 (band b1i0_53.0; High dose, 1d): 101.1
band intensity b1i0_53.0 (band b1i0_53.0; High dose, 3d): 98.11
band intensity b1i0_53.0 (band b1i0_53.0; High dose, 7d): 113.8
band intensity b1i0_53.0 (band b1i0_53.0; High dose, 14d): 60.92
band intensity b1i0_53.0 (band b1i0_53.0; Low dose, 1d): 103.4
band intensity b1i0_53.0 (band b1i0_53.0; Low dose, 3d): 101.1
band intensity b1i0_53.0 (band b1i0_53.0; Low dose, 7d): 111.5
band intensity b1i0_53.0 (band b1i0_53.0; Low dose, 14d): 55.87
band intensity b1i0_54.5 (band b1i0_54.5; High dose, 1d): 104.9
band intensity b1i0_54.5 (band b1i0_54.5; High dose, 3d): 106
band intensity b1i0_54.5 (band b1i0_54.5; High dose, 7d): 82.18
band intensity b1i0_54.5 (band b1i0_54.5; High dose, 14d): 51.09
band intensity b1i0_54.5 (band b1i0_54.5; Low dose, 1d): 123.7
band intensity b1i0_54.5 (band b1i0_54.5; Low dose, 3d): 111.4
band intensity b1i0_54.5 (band b1i0_54.5; Low dose, 7d): 86.49
band intensity b1i0_54.5 (band b1i0_54.5; Low dose, 14d): 62.55
band intensity b1i0_69.4 (band b1i0_69.4; High dose, 1d): 262.2
band intensity b1i0_69.4 (band b1i0_69.4; High dose, 3d): 329.9
band intensity b1i0_69.4 (band b1i0_69.4; High dose, 7d): 290.2061
band intensity b1i0_69.4 (band b1i0_69.4; High dose, 14d): 512.9
band intensity b1i0_69.4 (band b1i0_69.4; Low dose, 1d): 349.4
band intensity b1i0_69.4 (band b1i0_69.4; Low dose, 3d): 349.3
band intensity b1i0_69.4 (band b1i0_69.4; Low dose, 7d): 303.1
band intensity b1i0_69.4 (band b1i0_69.4; Low dose, 14d): 714.8
band intensity b1i0_62.5 (band b1i0_62.5; High dose, 1d): 59.42
band intensity b1i0_62.5 (band b1i0_62.5; High dose, 3d): 70.64
band intensity b1i0_62.5 (band b1i0_62.5; High dose, 7d): 71.55
band intensity b1i0_62.5 (band b1i0_62.5; High dose, 14d): 185.7
band intensity b1i0_62.5 (band b1i0_62.5; Low dose, 1d): 63.43
band intensity b1i0_62.5 (band b1i0_62.5; Low dose, 3d): 69.92
band intensity b1i0_62.5 (band b1i0_62.5; Low dose, 7d): 86.01
band intensity b1i0_62.5 (band b1i0_62.5; Low dose, 14d): 207.6
band intensity b1i0_60.7 (band b1i0_60.7; High dose, 1d): 67.13
band intensity b1i0_60.7 (band b1i0_60.7; High dose, 3d): 85.72
band intensity b1i0_60.7 (band b1i0_60.7; High dose, 7d): 82.44
band intensity b1i0_60.7 (band b1i0_60.7; High dose, 14d): 158.3
band intensity b1i0_60.7 (band b1i0_60.7; Low dose, 1d): 66.66
band intensity b1i0_60.7 (band b1i0_60.7; Low dose, 3d): 78.99
band intensity b1i0_60.7 (band b1i0_60.7; Low dose, 7d): 79.32
band intensity b1i0_60.7 (band b1i0_60.7; Low dose, 14d): 139.6
